# Laboratory results reported in patent US20230148214A1, “INDAZOLES AND AZAINDAZOLES AS LRRK2 INHIBITORS” (ESCAPE Bio, Inc., priority 2020, published 2023).
# Columns and labels:
# [1] = target: T1, LRRK2 WT (Homo sapiens, UniProt Q5S007); experiment: LRRK2 Kinase Activity Assay (LanthaScreen TR-FRET), wild type; assay type: biochemical; details: recombinant wild type LRRK2, 25 μM ATP, 400 nM LRRKtide, 60 min; class symbols
# T1 construct: purchased Life Technologies PR8604B
# In short: (§1)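 IC50 fitted to the compound-dependent loss of TR-FRET signal. Each kinase form, wild type or G2019S, phosphorylated the fluorescein-tagged ERM-derived LRRKtide in the presence of ATP and compound dilutions over 60 min at room temperature; quench contained 10 mM EDTA and 2 nM anti-pERM antibody (final).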
# [2] = target: T2, LRRK2 G2019S (Homo sapiens, UniProt Q5S007, G2019S); experiment: LRRK2 Kinase Activity Assay (LanthaScreen TR-FRET), G2019S; assay type: biochemical; details: recombinant G2019S-LRRK2, 25 μM ATP, 400 nM LRRKtide, 60 min; class symbols
# T2 construct: purchased Life Technologies PV4881
# In short: as §1
# T2 sequence (Q5S007 whole entry G2019S): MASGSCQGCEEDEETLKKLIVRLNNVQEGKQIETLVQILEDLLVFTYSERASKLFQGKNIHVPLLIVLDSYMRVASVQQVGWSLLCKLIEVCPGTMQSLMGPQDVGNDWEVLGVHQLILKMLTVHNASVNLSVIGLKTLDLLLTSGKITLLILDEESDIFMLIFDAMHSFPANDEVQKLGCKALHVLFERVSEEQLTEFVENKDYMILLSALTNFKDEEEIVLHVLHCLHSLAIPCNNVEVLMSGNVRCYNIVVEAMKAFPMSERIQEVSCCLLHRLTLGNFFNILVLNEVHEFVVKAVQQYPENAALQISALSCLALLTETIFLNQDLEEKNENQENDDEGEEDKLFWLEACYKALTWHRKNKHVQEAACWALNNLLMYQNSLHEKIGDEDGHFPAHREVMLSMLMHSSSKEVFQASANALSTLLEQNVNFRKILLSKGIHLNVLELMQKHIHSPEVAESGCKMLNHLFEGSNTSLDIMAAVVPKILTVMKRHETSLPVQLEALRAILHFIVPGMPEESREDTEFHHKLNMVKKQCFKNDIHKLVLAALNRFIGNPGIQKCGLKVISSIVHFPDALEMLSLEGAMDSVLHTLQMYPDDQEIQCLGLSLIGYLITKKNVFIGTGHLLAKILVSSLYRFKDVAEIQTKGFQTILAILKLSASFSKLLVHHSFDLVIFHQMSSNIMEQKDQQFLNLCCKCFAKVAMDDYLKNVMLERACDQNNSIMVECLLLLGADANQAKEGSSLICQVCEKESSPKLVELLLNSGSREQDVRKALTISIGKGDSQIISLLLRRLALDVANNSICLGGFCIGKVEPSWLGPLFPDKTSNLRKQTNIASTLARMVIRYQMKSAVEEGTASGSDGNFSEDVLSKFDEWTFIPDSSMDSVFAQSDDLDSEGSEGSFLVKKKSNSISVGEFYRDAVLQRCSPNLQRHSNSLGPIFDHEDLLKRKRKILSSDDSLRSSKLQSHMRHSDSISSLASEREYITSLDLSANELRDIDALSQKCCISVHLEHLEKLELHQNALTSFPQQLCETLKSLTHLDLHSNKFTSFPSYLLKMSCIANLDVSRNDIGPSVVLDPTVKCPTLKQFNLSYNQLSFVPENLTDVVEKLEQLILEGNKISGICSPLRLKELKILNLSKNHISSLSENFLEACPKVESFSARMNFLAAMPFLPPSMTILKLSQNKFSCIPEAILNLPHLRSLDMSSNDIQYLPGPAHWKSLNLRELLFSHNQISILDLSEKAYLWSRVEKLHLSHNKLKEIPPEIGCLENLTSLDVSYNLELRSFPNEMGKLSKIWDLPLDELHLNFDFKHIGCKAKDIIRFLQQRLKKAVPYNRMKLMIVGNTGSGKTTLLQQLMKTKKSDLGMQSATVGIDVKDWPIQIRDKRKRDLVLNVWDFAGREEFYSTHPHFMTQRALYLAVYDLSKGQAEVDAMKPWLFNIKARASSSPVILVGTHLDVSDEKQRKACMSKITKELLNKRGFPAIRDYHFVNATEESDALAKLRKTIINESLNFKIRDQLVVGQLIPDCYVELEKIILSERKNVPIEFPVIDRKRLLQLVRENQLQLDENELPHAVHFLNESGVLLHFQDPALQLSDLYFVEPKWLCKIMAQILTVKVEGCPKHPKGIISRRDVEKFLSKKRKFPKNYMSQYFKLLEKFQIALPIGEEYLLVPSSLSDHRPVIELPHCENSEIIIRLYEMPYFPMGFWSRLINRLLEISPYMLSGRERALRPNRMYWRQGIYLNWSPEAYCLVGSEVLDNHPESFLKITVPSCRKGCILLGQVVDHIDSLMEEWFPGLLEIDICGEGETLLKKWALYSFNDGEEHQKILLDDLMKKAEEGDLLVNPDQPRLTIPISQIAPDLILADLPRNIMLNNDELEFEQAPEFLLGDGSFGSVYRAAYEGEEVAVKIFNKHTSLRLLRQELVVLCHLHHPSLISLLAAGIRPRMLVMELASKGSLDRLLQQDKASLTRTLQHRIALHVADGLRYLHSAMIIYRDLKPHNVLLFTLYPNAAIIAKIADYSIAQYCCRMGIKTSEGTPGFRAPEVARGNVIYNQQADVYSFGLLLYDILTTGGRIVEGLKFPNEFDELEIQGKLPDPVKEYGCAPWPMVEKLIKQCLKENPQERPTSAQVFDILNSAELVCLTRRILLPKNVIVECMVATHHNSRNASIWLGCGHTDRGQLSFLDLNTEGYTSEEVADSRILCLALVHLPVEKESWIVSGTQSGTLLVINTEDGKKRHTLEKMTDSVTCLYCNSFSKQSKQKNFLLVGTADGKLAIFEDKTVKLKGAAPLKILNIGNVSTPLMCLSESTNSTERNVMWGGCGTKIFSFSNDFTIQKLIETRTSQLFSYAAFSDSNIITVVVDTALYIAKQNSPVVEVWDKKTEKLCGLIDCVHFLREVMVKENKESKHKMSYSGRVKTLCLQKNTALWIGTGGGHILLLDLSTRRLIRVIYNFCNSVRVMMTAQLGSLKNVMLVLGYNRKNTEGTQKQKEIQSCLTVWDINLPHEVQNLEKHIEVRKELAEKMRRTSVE
# T1 sequence (Q5S007 whole entry): as the sequence (Q5S007 whole entry G2019S) above, with S2019G counted along it
IC50 [1] [nM],IC50 [2] [nM],Structure (SMILES)
100 to 1000,< 100,"N#Cc1ccc2c(c1)CC[C@H]2Oc1ccc2[nH]nc(-c3cnco3)c2n1 (single isomer, unassigned) [Example 31, enantiomer 2, 1-((3-(Oxazol-5-yl)-1H-pyrazolo[4,3-b]pyridin-5-yl)oxy)-2,3-dihydro-1H-indene-5-carbonitrile]"
1000 to 10000,100 to 1000,"N#Cc1ccc2c(c1)CCC[C@H]2Oc1cc2c(-c3cnco3)n[nH]c2cn1 (single isomer, unassigned) [Example 32, enantiomer 1, 5-((3-(Oxazol-5-yl)-1H-pyrazolo[3,4-c]pyridin-5-yl)oxy)-5,6,7,8-tetrahydronaphthalene-2-carbonitrile]"
< 100,< 100,"N#Cc1ccc2c(c1)CCC[C@H]2Oc1cc2c(-c3cnco3)n[nH]c2cn1 (single isomer, unassigned) [Example 32, enantiomer 2, 5-((3-(Oxazol-5-yl)-1H-pyrazolo[3,4-c]pyridin-5-yl)oxy)-5,6,7,8-tetrahydronaphthalene-2-carbonitrile]"
< 100,< 100,"N#Cc1ccc2c(c1)CCC[C@@H]2Nc1cc2c(-c3cnco3)n[nH]c2cn1 (single isomer, unassigned) [Example 33, enantiomer 1, 5-((3-(Oxazol-5-yl)-1H-pyrazolo[3,4-c]pyridin-5-yl)amino)-5,6,7,8-tetrahydronaphthalene-2-carbonitrile]"
100 to 1000,100 to 1000,"N#Cc1ccc2c(c1)CCC[C@@H]2Nc1cc2c(-c3cnco3)n[nH]c2cn1 (single isomer, unassigned) [Example 33, enantiomer 2, 5-((3-(Oxazol-5-yl)-1H-pyrazolo[3,4-c]pyridin-5-yl)amino)-5,6,7,8-tetrahydronaphthalene-2-carbonitrile]"
< 100,< 100,"N#Cc1nc2c(o1)CCC[C@@H]2Nc1ccc2[nH]nc(-c3cnco3)c2c1 (single isomer, unassigned) [Example 35, enantiomer 1, 4-((3-(Oxazol-5-yl)-1H-indazol-5-yl)amino)-4,5,6,7-tetrahydrobenzo[d]oxazole-2-carbonitrile]"
100 to 1000,100 to 1000,"N#Cc1nc2c(o1)CCC[C@@H]2Nc1ccc2[nH]nc(-c3cnco3)c2c1 (single isomer, unassigned) [Example 35, enantiomer 2, 4-((3-(Oxazol-5-yl)-1H-indazol-5-yl)amino)-4,5,6,7-tetrahydrobenzo[d]oxazole-2-carbonitrile]"
1000 to 10000,100 to 1000,"N#Cc1nc2c(o1)CCC2Nc1ccc2[nH]nc(-c3cnco3)c2c1 (single isomer, unassigned) [Example 36, enantiomer 1, 4-((3-(Oxazol-5-yl)-1H-indazol-5-yl)amino)-5,6-dihydro-4H-cyclopenta[d]oxazole-2-carbonitrile]"
< 100,< 100,"N#Cc1nc2c(o1)CCC2Nc1ccc2[nH]nc(-c3cnco3)c2c1 (single isomer, unassigned) [Example 36, enantiomer 2, 4-((3-(Oxazol-5-yl)-1H-indazol-5-yl)amino)-5,6-dihydro-4H-cyclopenta[d]oxazole-2-carbonitrile]"
< 100,< 100,"N#Cc1cccc2c1[C@@H](Oc1ccc3[nH]nc(-c4cnco4)c3c1)CC2 (single isomer, unassigned) [Example 37, enantiomer 1, 3-((3-(Oxazol-5-yl)-1H-indazol-5-yl)oxy)-2,3-dihydro-1H-indene-4-carbonitrile]"
< 100,< 100,"N#Cc1ccc2c(c1)CCC[C@@H]2Oc1ccc2[nH]nc(-c3ccnc(N4CCOCC4)c3)c2c1 (single isomer, unassigned) [Example 39, enantiomer 1, 5-((3-(2-Morpholinopyridin-4-yl)-1H-indazol-5-yl)oxy)-5,6,7,8-tetrahydronaphthalene-2-carbonitrile]"
